Test results as given in US11697650B2, “Compounds having tetrahydroindolizine-1-carboxamide as BCL-2 inhibitors” (Eil Therapeutics, Inc., priority 2021, dated 2023).
pEC50, pIC50: −log10 of the molar value.

How the values were obtained:
BCL-2 = BCL-2 (Homo sapiens (Human), UniProt P10415); test: BCL-2 TR-FRET Assay (primary PPI inhibition); format: binding; details: 60 min incubation; read-out: BCL2 (IC50 code, BCL-2 TR-FRET)
Protocol: BCL-2 TR-FRET Assay (BPS Bioscience, #50222)
(§1) The following assay concentrations and times were used: 3 ng BCL-2, 5 μl of 1:100 anti-His Tb-labeled donor, 5 μl of 1:100 Dye-labeled acceptor, 5 μl of 1:40 BCL-2 Peptide Ligand, and 2 ul of test compound, with 60 min incubation time. The results of the assay were read using a Clariostar (BMG Labtech) plate reader with the following parameters: TR FRET, 340ex/620 and 665em; 60 μsec Delay; and 500 μsec integration.

BCL-XL = BCL-XL (Homo sapiens (Human), UniProt Q07817); test: BCL-XL TR-FRET Assay (primary PPI inhibition); format: binding; details: 60 min incubation; read-out: BCLxL (IC50 code, BCL-XL TR-FRET)
Chain of BCL-XL (Q07817 whole entry): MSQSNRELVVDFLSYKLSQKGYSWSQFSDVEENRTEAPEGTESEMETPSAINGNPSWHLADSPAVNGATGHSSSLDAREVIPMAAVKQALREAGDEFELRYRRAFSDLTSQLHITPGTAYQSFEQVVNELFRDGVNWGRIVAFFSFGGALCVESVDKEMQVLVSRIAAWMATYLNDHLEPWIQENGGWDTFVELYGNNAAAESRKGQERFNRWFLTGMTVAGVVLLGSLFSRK
Protocol: BCL-XL TR-FRET Assay (BPS Bioscience, #50223)
as §1, with “used: 10.5” for “used: 3”, “ng BCL-XL,” for “ng BCL-2,”, “of 1:80 BCL-XL” for “of 1:40 BCL-2”, “2 μl” for “2 ul”

RS4-11 cells = test: Cell viability assay (CellTiter-Glo), RS4-11; format: cell-based; details: Homo sapiens, 72 h, 3 days, read-out: RS4-11 (CC50 code)
Protocol: (§2) Culture medium for HEK293—DMEM (PanEco, Cat #C420) was used. RPMI-1640 (PanEco, Cat #C363) was used for the rest of the cell lines.
(§3) Compounds were prepared as 200× stocks with serial dilution in 100% DMSO with a final concentration of 1×.
(§4) […] were dispersed in 40 μL aliquots in 384-well plates at a concentration of 2000 cells per well for HEK293 and at a concentration of 4000 cells per well for the rest of the cell lines using a robotic station Biomek (Beckman). Before adding compounds, the cells were incubated at 37° C. (HEK293 were incubated for a day before adding compounds).
(§5) A dilution plate was prepared by pouring 78 μL of the appropriate culture medium using a robotic station Biomek (Beckman). Sequentially, using a robotic station, 2 μL of substances were taken and added to 78 μL of culture medium (dilution of compounds 40×). 10 μL aliquots were taken and added to the plates of the cells (dilution of compounds 5×). The plates were incubated for 3 days at a temperature 37° C. After 3 days, 10 μL of CellTiter-Glo (Promega) was added to the cells and the luminescence was measured.

MOLT-4 cells = test: Cell viability assay (CellTiter-Glo), MOLT-4; format: cell-based; details: Homo sapiens, 72 h, 3 days, read-out: MOLT-4 (CC50 code)
Protocol: as §2, §3, §4, §5

[1] = Cell viability assay (CellTiter-Glo), HEK293; format: cell-based; details: human, HEK293 cells, read-out: HEK293 (CC50 code)
Protocol: as §2, §3, §4, §5

[2] = system: caspase-3 and -7 activities in RS4-11 cells; test: Caspase-3/7 activation (Caspase-Glo 3/7) in RS4-11 cells; format: cell-based; details: Homo sapiens, 3.5 h incubation, read-out: Cas-3/7 (EC50 code)
Protocol: The Caspase-Glo 3/7 Assay is homogeneous, luminescent assay that measures caspase-3 and -7 activities. The assay provides a luminogenic caspase-3/7 substrate, which contains the tetrapeptide sequence DEVD, in a reagent optimized for caspase activity.
Incubate RS4-11 cells with varying concentrations of test compounds for 3.5 h in a humidified incubator at 37° C. and 5% CO2 and 30 min at r.t. Add 15 μl Caspase-Glo reagent to each well and incubate the plate for 30 min at r.t. Read on ClarioStar Plus instrument.
Promega Caspase-Glo (Promega, #8212); Frozen RS4-11 cells; 384-well white plate (Corning, #3570).
ClarioStar Plus; Biomek FX for liquid handling (Beckman Coulter).

Chain of BCL-2 (P10415 whole entry): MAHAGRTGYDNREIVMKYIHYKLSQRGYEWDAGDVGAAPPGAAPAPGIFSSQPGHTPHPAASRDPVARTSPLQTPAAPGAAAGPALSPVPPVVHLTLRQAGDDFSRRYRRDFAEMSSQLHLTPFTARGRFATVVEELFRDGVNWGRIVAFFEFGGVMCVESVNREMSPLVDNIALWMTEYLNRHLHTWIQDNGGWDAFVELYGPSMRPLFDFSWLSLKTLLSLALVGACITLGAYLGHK

SMILES: COc1cccc(CN(C(=O)c2cc(-c3cc4c(cc3C(=O)N3Cc5ccccc5C[C@H]3CN3CCOCC3)OCO4)n3c2CCCC3)c2ccc(O)cc2)c1C [Compound 3, N-(4-hydroxyphenyl)-N-(3-methoxy-2-methylbenzyl)-3-(6-{[(3S)-3-(morpholin-4-ylmethyl)-3,4-dihydroisoquinolin-2(1H)-yl]carbonyl}-1,3-benzodioxol-5-yl)-5,6,7,8-tetrahydroindolizine-1-carboxamide]
- pIC50 (BCL-2): ≥ 8.30
- pIC50 (BCL-XL): ≥ 5.70
- CC50 (RS4-11 cells): ≤ 100 nM
- CC50 (MOLT-4 cells): ≤ 2000 nM
- CC50 at 3 days [1]: > 25000 nM
- pEC50 [2]: ≥ 7.00

SMILES: Cc1ccccc1CN(C(=O)c1cc(-c2cc3c(cc2C(=O)N2Cc4ccccc4C[C@H]2CN2CCOCC2)OCO3)n2c1CCCC2)c1ccc(O)cc1 [Compound 4, N-(4-hydroxyphenyl)-N-(2-methylbenzyl)-3-(6-{[(3S)-3-(morpholin-4-ylmethyl)-3,4-dihydroisoquinolin-2(1H)-yl]carbonyl}-1,3-benzodioxol-5-yl)-5,6,7,8-tetrahydroindolizine-1-carboxamide]
- pIC50 (BCL-2): ≥ 8.30
- pIC50 (BCL-XL): ≥ 5.70
- CC50 (RS4-11 cells): ≤ 100 nM
- CC50 (MOLT-4 cells): > 10000 nM
- CC50 at 3 days [1]: > 25000 nM
- pEC50 [2]: ≥ 7.00

SMILES: O=C(c1cc(-c2cc3c(cc2C(=O)N2Cc4ccccc4C[C@H]2CN2CCOCC2)OCO3)n2c1CCCC2)N(Cc1ccccc1C(F)(F)F)c1ccc(O)cc1 [Compound 5, N-(4-hydroxyphenyl)-3-(6-{[(3S)-3-(morpholin-4-ylmethyl)-3,4-dihydroisoquinolin-2(1H)-yl]carbonyl}-1,3-benzodioxol-5-yl)-N-[2-(trifluoromethyl)benzyl]-5,6,7,8-tetrahydroindolizine-1-carboxamide]
- pIC50 (BCL-2): ≥ 8.30
- pIC50 (BCL-XL): ≥ 5.70
- CC50 (RS4-11 cells): ≤ 100 nM
- CC50 (MOLT-4 cells): 2000 to 10000 nM
- CC50 at 3 days [1]: > 25000 nM
- pEC50 [2]: ≥ 7.00

SMILES: O=C(c1cc(-c2cc3c(cc2C(=O)N2Cc4ccccc4C[C@H]2CN2CCOCC2)OCO3)n2c1CCCC2)N(Cc1ccncc1)c1ccc(O)cc1 [Compound 9, N-(4-hydroxyphenyl)-3-(6-{[(3S)-3-(morpholin-4-ylmethyl)-3,4-dihydroisoquinolin-2(1H)-yl]carbonyl}-1,3-benzodioxol-5-yl)-N-(pyridin-4-ylmethyl)-5,6,7,8-tetrahydroindolizine-1-carboxamide]
- pIC50 (BCL-2): ≥ 8.30
- pIC50 (BCL-XL): 5.40 to 5.70
- CC50 (RS4-11 cells): 100 to 200 nM
- CC50 (MOLT-4 cells): 2000 to 10000 nM
- CC50 at 3 days [1]: 10000 to 25000 nM
- pEC50 [2]: 6.60 to 7.00

SMILES: Cc1cccc(CN(C(=O)c2cc(-c3cc4c(cc3C(=O)N3Cc5ccccc5C[C@H]3CN3CCOCC3)OCO4)n3c2CCCC3)c2ccc(O)cc2)c1 [Compound 14, N-(4-hydroxyphenyl)-N-(3-methylbenzyl)-3-(6-{[(3S)-3-(morpholin-4-ylmethyl)-3,4-dihydroisoquinolin-2(1H)-yl]carbonyl}-1,3-benzodioxol-5-yl)-5,6,7,8-tetrahydroindolizine-1-carboxamide]
- pIC50 (BCL-2): 8.00 to 8.30
- pIC50 (BCL-XL): 5.40 to 5.70
- CC50 (RS4-11 cells): ≤ 100 nM
- CC50 (MOLT-4 cells): 2000 to 10000 nM
- CC50 at 3 days [1]: > 25000 nM
- pEC50 [2]: < 6.60

SMILES: O=C(c1cc(-c2cc3c(cc2C(=O)N2Cc4ccccc4C[C@H]2CN2CCOCC2)OCO3)n2c1CCCC2)N(Cc1ccccc1)c1ccc(O)cc1 [Compound 15, N-benzyl-N-(4-hydroxyphenyl)-3-(6-{[(3S)-3-(morpholin-4-ylmethyl)-3,4-dihydroisoquinolin-2(1H)-yl]carbonyl}-1,3-benzodioxol-5-yl)-5,6,7,8-tetrahydroindolizine-1-carboxamide]
- pIC50 (BCL-2): 8.00 to 8.30
- pIC50 (BCL-XL): ≥ 5.70
- CC50 (RS4-11 cells): 100 to 200 nM
- CC50 (MOLT-4 cells): ≤ 2000 nM
- CC50 at 3 days [1]: > 25000 nM
- pEC50 [2]: 6.60 to 7.00

SMILES: O=C(c1cc(-c2cc3c(cc2C(=O)N2Cc4ccccc4C[C@H]2CN2CCOCC2)OCO3)n2c1CCCC2)N(Cc1cccc(C(F)(F)F)c1)c1ccc(O)cc1 [Compound 16, N-(4-hydroxyphenyl)-3-(6-{[(3S)-3-(morpholin-4-ylmethyl)-3,4-dihydroisoquinolin-2(1H)-yl]carbonyl}-1,3-benzodioxol-5-yl)-N-[3-(trifluoromethyl)benzyl]-5,6,7,8-tetrahydroindolizine-1-carboxamide]
- pIC50 (BCL-2): 7.30 to 8.00
- pIC50 (BCL-XL): < 5.40
- CC50 (RS4-11 cells): 100 to 200 nM
- CC50 (MOLT-4 cells): > 10000 nM
- CC50 at 3 days [1]: > 25000 nM
- pEC50 [2]: 6.60 to 7.00

SMILES: O=C(c1cc(-c2cc3c(cc2C(=O)N2Cc4ccccc4C[C@H]2CN2CCOCC2)OCO3)n2c1CCCC2)N(Cc1ccccc1-c1ccccc1)c1ccc(O)cc1 [Compound 18, N-(biphenyl-2-ylmethyl)-N-(4-hydroxyphenyl)-3-(6-{[(3S)-3-(morpholin-4-ylmethyl)-3,4-dihydroisoquinolin-2(1H)-yl]carbonyl}-1,3-benzodioxol-5-yl)-5,6,7,8-tetrahydroindolizine-1-carboxamide]
- pIC50 (BCL-2): 7.30 to 8.00
- pIC50 (BCL-XL): ≥ 5.70
- CC50 (RS4-11 cells): > 200 nM
- CC50 (MOLT-4 cells): 2000 to 10000 nM
- CC50 at 3 days [1]: > 25000 nM
- pEC50 [2]: < 6.60

SMILES: O=C(c1cc(-c2cc3c(cc2C(=O)N2Cc4ccccc4C[C@H]2CN2CCOCC2)OCO3)n2c1CCCC2)N(Cc1c(F)cccc1F)c1ccc(O)cc1 [Compound 19, N-(2,6-difluorobenzyl)-N-(4-hydroxyphenyl)-3-(6-{[(3S)-3-(morpholin-4-ylmethyl)-3,4-dihydroisoquinolin-2(1H)-yl]carbonyl}-1,3-benzodioxol-5-yl)-5,6,7,8-tetrahydroindolizine-1-carboxamide]
- pIC50 (BCL-2): 8.00 to 8.30
- pIC50 (BCL-XL): < 5.40
- CC50 (RS4-11 cells): > 200 nM
- CC50 (MOLT-4 cells): 2000 to 10000 nM
- CC50 at 3 days [1]: > 25000 nM
- pEC50 [2]: < 6.60

SMILES: Cc1ccc(CN(C(=O)c2cc(-c3cc4c(cc3C(=O)N3Cc5ccccc5C[C@H]3CN3CCOCC3)OCO4)n3c2CCCC3)c2ccc(O)cc2)cc1 [Compound 20, N-(4-hydroxyphenyl)-N-(4-methylbenzyl)-3-(6-{[(3S)-3-(morpholin-4-ylmethyl)-3,4-dihydroisoquinolin-2(1H)-yl]carbonyl}-1,3-benzodioxol-5-yl)-5,6,7,8-tetrahydroindolizine-1-carboxamide]
- pIC50 (BCL-2): 8.00 to 8.30
- pIC50 (BCL-XL): 5.40 to 5.70
- CC50 (RS4-11 cells): 100 to 200 nM
- CC50 (MOLT-4 cells): 2000 to 10000 nM
- CC50 at 3 days [1]: ≤ 10000 nM
- pEC50 [2]: < 6.60

SMILES: O=C(c1cc(-c2cc3c(cc2C(=O)N2Cc4ccccc4C[C@H]2CN2CCOCC2)OCO3)n2c1CCCC2)N(Cc1cccc(F)c1)c1ccc(O)cc1 [Compound 21, N-(3-fluorobenzyl)-N-(4-hydroxyphenyl)-3-(6-{[(3S)-3-(morpholin-4-ylmethyl)-3,4-dihydroisoquinolin-2(1H)-yl]carbonyl}-1,3-benzodioxol-5-yl)-5,6,7,8-tetrahydroindolizine-1-carboxamide]
- pIC50 (BCL-2): 7.30 to 8.00
- pIC50 (BCL-XL): 5.40 to 5.70
- CC50 (RS4-11 cells): 100 to 200 nM
- CC50 (MOLT-4 cells): > 10000 nM
- CC50 at 3 days [1]: > 25000 nM
- pEC50 [2]: < 6.60

SMILES: Cc1cc(C(F)(F)F)ccc1CN(C(=O)c1cc(-c2cc3c(cc2C(=O)N2Cc4ccccc4C[C@H]2CN2CCOCC2)OCO3)n2c1CCCC2)c1ccc(O)cc1 [Compound 37, N-(4-hydroxyphenyl)-N-[2-methyl-4-(trifluoromethyl)benzyl]-3-(6-{[(3S)-3-(morpholin-4-ylmethyl)-3,4-dihydroisoquinolin-2(1H)-yl]carbonyl}-1,3-benzodioxol-5-yl)-5,6,7,8-tetrahydroindolizine-1-carboxamide]
- pIC50 (BCL-2): 8.00 to 8.30
- CC50 (RS4-11 cells): ≤ 100 nM
- CC50 (MOLT-4 cells): 2000 to 10000 nM
- CC50 at 3 days [1]: > 25000 nM
- pEC50 [2]: 6.60 to 7.00
